The values that follow are results of earlier work, collected in US20240299301A1, “LIPID NANOPARTICLES AND METHOD FOR PREPARING SAME” (THERNA THERAPEUTICS, priority 2021, published 2024).

The structures appear in SMILES notation.

Consider `CCCCC/C=C\C/C=C\CCCCCCCCC(CCCCCCCC/C=C\C/C=C\CCCCC)OC(=O)CCCN(C)C` [DLin-MC3-DMA, (6Z, 9Z, 28Z, 31Z)-heptatriaconta 6,9,28,31-tetraen-19-yl 4-(dimethylamino)butanoate], for which the “pKa of the amine group” value is “about 6.5”.
